{
  "source": "patent US10517889B2",
  "about": "“Modulators of SMAD7 expression” (Ionis Pharmaceuticals, Inc., priority 2017, dated 2019)",
  "note": "Strand notation (5' to 3'): a small letter for the sugar, then the base; units joined by * are phosphorothioate-linked, units joined directly phosphodiester-linked; [ ] holds rarer units or linkages, { } end groups; capitals alone tell only the bases. k = constrained ethyl (cEt); [5mC] = 5-methylcytosine; d = 2'-deoxy (DNA)",
  "data": [
    {"tested_on": "human SMAD7 mRNA", "experiment": "Antisense inhibition of human SMAD7 mRNA expression in Hep3B cells by 3-10-3 cEt gapmers, 10,000 nM, electroporation (Example 2)", "format": "cell-based", "conditions": "Hep3B cells, electroporation, 10,000 nM, approximately 24 hours; 3-10-3 cEt gapmers targeting SEQ ID NO: 3 and 4", "procedure,_shortened": "(§1)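 SMAD7 mRNA was measured by real-time PCR (RTS5062) with RiboGreen total-RNA normalization, about 24 h after 10,000 nM gapmer was delivered by electroporation into Hep3B cells at 20,000 per well. Gapmers were 16-mer 3-10-3 cEt, fully phosphorothioate; values are % inhibition versus untreated controls.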", "units": {"% inhibition of SMAD7 mRNA expression": "%"}, "values": [
      {"substance": "829940 (kG*kT*k[5mC]*dA*dG*dT*dT*dG*dG*dT*dT*dT*dG*kA*kG*kA; antisense) [compound 829940]", "% inhibition of SMAD7 mRNA expression": 14},
      {"substance": "829941 (k[5mC]*kA*kG*dT*d[5mC]*dA*dG*dT*dT*dG*dG*dT*dT*kT*kG*kA; antisense) [compound 829941]", "% inhibition of SMAD7 mRNA expression": 8},
      {"substance": "829943 (kG*kG*kG*dA*dG*dA*d[5mC]*dT*d[5mC]*d[5mC]*dA*dG*dT*kT*k[5mC]*kG; antisense) [compound 829943]", "% inhibition of SMAD7 mRNA expression": 43}
    ]},
    {"tested_on": "human SMAD7 mRNA", "experiment": "Antisense inhibition of human SMAD7 mRNA expression in Hep3B cells by 3-10-3 cEt gapmers, 10,000 nM, electroporation (Example 2)", "format": "cell-based", "conditions": "SMAD7 mRNA, Hep3B cells, electroporation with 10,000 nM antisense oligonucleotide, approximately 24 hours, primer probe set RTS5062, relative to untreated control cells", "procedure,_shortened": "as §1", "units": {"% Inhibition": "%"}, "values": [
      {"substance": "829921 (antisense kT*k[5mC]*kA*dT*dA*d[5mC]*dG*dA*dG*dT*dG*dT*dA*kT*kG*kA) [compound 829921]", "% Inhibition": 10},
      {"substance": "829922 (antisense kG*kT*kA*dT*d[5mC]*dA*dT*dA*d[5mC]*dG*dA*dG*dT*kG*kT*kA) [compound 829922]", "% Inhibition": 56},
      {"substance": "829923 (kA*kG*kT*dA*dT*d[5mC]*dA*dT*dA*d[5mC]*dG*dA*dG*kT*kG*kT; antisense) [compound 829923]", "% Inhibition": 54},
      {"substance": "829924 (k[5mC]*kT*k[5mC]*dA*dT*dT*dG*dA*dG*d[5mC]*dT*dA*dA*kG*kA*kA; antisense) [compound 829924]", "% Inhibition": 25},
      {"substance": "829925 (kA*kT*kG*d[5mC]*dT*d[5mC]*dA*dT*dT*dG*dA*dG*d[5mC]*kT*kA*kA; antisense) [compound 829925]", "% Inhibition": 37},
      {"substance": "829926 (k[5mC]*kA*kT*dG*d[5mC]*dT*d[5mC]*dA*dT*dT*dG*dA*dG*k[5mC]*kT*kA; antisense) [compound 829926]", "% Inhibition": 24},
      {"substance": "829927 (kA*kA*kG*dT*d[5mC]*dT*dA*dA*dA*d[5mC]*dA*dT*dG*k[5mC]*kT*k[5mC]; antisense) [compound 829927]", "% Inhibition": 64},
      {"substance": "829928 (k[5mC]*kA*k[5mC]*dT*dA*d[5mC]*dA*dA*dT*dG*d[5mC]*dT*dA*kA*kA*kT; antisense) [compound 829928]", "% Inhibition": 26},
      {"substance": "829929 (kA*k[5mC]*k[5mC]*dA*dA*dT*d[5mC]*dT*dT*dG*dT*dG*dT*kT*kT*kA; antisense) [compound 829929]", "% Inhibition": 19},
      {"substance": "829930 (k[5mC]*kA*k[5mC]*d[5mC]*dA*dA*dT*d[5mC]*dT*dT*dG*dT*dG*kT*kT*kT; antisense) [compound 829930]", "% Inhibition": 0},
      {"substance": "829931 (kA*kA*k[5mC]*dA*d[5mC]*d[5mC]*dA*dA*dT*d[5mC]*dT*dT*dG*kT*kG*kT; antisense) [compound 829931]", "% Inhibition": 0},
      {"substance": "829932 (kT*kG*kA*dT*dA*dA*d[5mC]*dA*d[5mC]*d[5mC]*d[5mC]*dA*dT*kA*kG*kA; antisense) [compound 829932]", "% Inhibition": 41},
      {"substance": "829933 (kG*kT*kG*dA*dT*dA*dA*d[5mC]*dA*d[5mC]*d[5mC]*d[5mC]*dA*kT*kA*kG; antisense) [compound 829933]", "% Inhibition": 38},
      {"substance": "829934 (kT*kA*kG*dG*dT*dG*dA*dT*dA*dA*d[5mC]*dA*d[5mC]*k[5mC]*k[5mC]*kA; antisense) [compound 829934]", "% Inhibition": 26},
      {"substance": "829935 (k[5mC]*kT*kA*dG*dG*dT*dG*dA*dT*dA*dA*d[5mC]*dA*k[5mC]*k[5mC]*k[5mC]; antisense) [compound 829935]", "% Inhibition": 0},
      {"substance": "829936 (k[5mC]*kA*kG*d[5mC]*dT*dA*dG*dG*dT*dG*dA*dT*dA*kA*k[5mC]*kA; antisense) [compound 829936]", "% Inhibition": 14},
      {"substance": "829937 (kT*kT*k[5mC]*dA*dG*d[5mC]*dT*dA*dG*dG*dT*dG*dA*kT*kA*kA; antisense) [compound 829937]", "% Inhibition": 0},
      {"substance": "829938 (kA*kT*kT*d[5mC]*dA*dG*d[5mC]*dT*dA*dG*dG*dT*dG*kA*kT*kA; antisense) [compound 829938]", "% Inhibition": 17},
      {"substance": "829939 (kA*k[5mC]*kA*dT*dT*d[5mC]*dA*dG*d[5mC]*dT*dA*dG*dG*kT*kG*kA; antisense) [compound 829939]", "% Inhibition": 34},
      {"substance": "829944 (k[5mC]*k[5mC]*kA*dG*dT*dT*dA*dA*dT*d[5mC]*dA*dT*dT*kA*k[5mC]*kT; antisense) [compound 829944]", "% Inhibition": 23},
      {"substance": "829945 (kG*k[5mC]*k[5mC]*dA*dG*dT*dT*dA*dA*dT*d[5mC]*dA*dT*kT*kA*k[5mC]; antisense) [compound 829945]", "% Inhibition": 31},
      {"substance": "829946 (kG*k[5mC]*kA*dG*d[5mC]*d[5mC]*dA*dG*dT*dT*dA*dA*dT*k[5mC]*kA*kT; antisense) [compound 829946]", "% Inhibition": 44},
      {"substance": "829947 (kG*kG*kG*d[5mC]*dA*dG*d[5mC]*d[5mC]*dA*dG*dT*dT*dA*kA*kT*k[5mC]; antisense) [compound 829947]", "% Inhibition": 31},
      {"substance": "829948 (k[5mC]*kG*kG*dG*d[5mC]*dA*dG*d[5mC]*d[5mC]*dA*dG*dT*dT*kA*kA*kT; antisense) [compound 829948]", "% Inhibition": 43},
      {"substance": "829949 (k[5mC]*k[5mC]*kG*dG*dG*d[5mC]*dA*dG*d[5mC]*d[5mC]*dA*dG*dT*kT*kA*kA; antisense) [compound 829949]", "% Inhibition": 19},
      {"substance": "829950 (kT*k[5mC]*k[5mC]*dG*dG*dG*d[5mC]*dA*dG*d[5mC]*d[5mC]*dA*dG*kT*kT*kA; antisense) [compound 829950]", "% Inhibition": 43},
      {"substance": "829951 (kG*k[5mC]*kT*d[5mC]*d[5mC]*dG*dG*dG*d[5mC]*dA*dG*d[5mC]*d[5mC]*kA*kG*kT; antisense) [compound 829951]", "% Inhibition": 10},
      {"substance": "829952 (kA*k[5mC]*k[5mC]*d[5mC]*dG*dT*d[5mC]*dT*dG*dG*dG*d[5mC]*dT*k[5mC]*k[5mC]*kG; antisense) [compound 829952]", "% Inhibition": 2},
      {"substance": "829953 (kG*kT*k[5mC]*dA*d[5mC]*d[5mC]*d[5mC]*dG*dT*d[5mC]*dT*dG*dG*kG*k[5mC]*kT; antisense) [compound 829953]", "% Inhibition": 34},
      {"substance": "829954 (kT*kT*kG*dT*d[5mC]*dA*d[5mC]*d[5mC]*d[5mC]*dG*dT*d[5mC]*dT*kG*kG*kG; antisense) [compound 829954]", "% Inhibition": 53},
      {"substance": "829955 (k[5mC]*kT*kT*dG*dT*d[5mC]*dA*d[5mC]*d[5mC]*d[5mC]*dG*dT*d[5mC]*kT*kG*kG; antisense) [compound 829955]", "% Inhibition": 52},
      {"substance": "829957 (k[5mC]*kA*k[5mC]*d[5mC]*dT*dT*dG*dT*d[5mC]*dA*d[5mC]*d[5mC]*d[5mC]*kG*kT*k[5mC]; antisense) [compound 829957]", "% Inhibition": 41},
      {"substance": "829958 (kG*k[5mC]*kA*d[5mC]*d[5mC]*dT*dT*dG*dT*d[5mC]*dA*d[5mC]*d[5mC]*k[5mC]*kG*kT; antisense) [compound 829958]", "% Inhibition": 51},
      {"substance": "829959 (kT*kT*kA*dT*dT*dA*dA*dT*dG*dG*dT*d[5mC]*dT*kG*k[5mC]*kT; antisense) [compound 829959]", "% Inhibition": 12},
      {"substance": "829960 (kA*kT*kT*dA*dT*dT*dA*dA*dT*dG*dG*dT*d[5mC]*kT*kG*k[5mC]; antisense) [compound 829960]", "% Inhibition": 17},
      {"substance": "829961 (kT*kG*kA*dT*dT*dA*dT*dT*dA*dA*dT*dG*dG*kT*k[5mC]*kT; antisense) [compound 829961]", "% Inhibition": 14},
      {"substance": "829962 (k[5mC]*kT*kG*dA*dT*dT*dA*dT*dT*dA*dA*dT*dG*kG*kT*k[5mC]; antisense) [compound 829962]", "% Inhibition": 19},
      {"substance": "829963 (k[5mC]*k[5mC]*kT*dA*dG*dT*dT*d[5mC]*dG*d[5mC]*dA*dG*dA*kG*kT*k[5mC]; antisense) [compound 829963]", "% Inhibition": 46},
      {"substance": "829964 (k[5mC]*kA*k[5mC]*d[5mC]*dT*dA*dG*dT*dT*d[5mC]*dG*d[5mC]*dA*kG*kA*kG; antisense) [compound 829964]", "% Inhibition": 3},
      {"substance": "829965 (k[5mC]*kT*k[5mC]*dA*d[5mC]*d[5mC]*dT*dA*dG*dT*dT*d[5mC]*dG*k[5mC]*kA*kG; antisense) [compound 829965]", "% Inhibition": 0},
      {"substance": "829966 (kT*kT*k[5mC]*d[5mC]*d[5mC]*dA*dG*dG*dA*dG*dG*dG*dT*kA*kT*kG; antisense) [compound 829966]", "% Inhibition": 0},
      {"substance": "829967 (k[5mC]*k[5mC]*k[5mC]*d[5mC]*d[5mC]*dA*dG*dG*dG*dA*dA*dT*dG*k[5mC]*k[5mC]*k[5mC]; antisense) [compound 829967]", "% Inhibition": 0},
      {"substance": "829968 (kA*kA*k[5mC]*d[5mC]*d[5mC]*d[5mC]*d[5mC]*dA*dG*dG*dG*dA*dA*kT*kG*k[5mC]; antisense) [compound 829968]", "% Inhibition": 30},
      {"substance": "829969 (kG*kA*kA*d[5mC]*d[5mC]*d[5mC]*d[5mC]*d[5mC]*dA*dG*dG*dG*dA*kA*kT*kG; antisense) [compound 829969]", "% Inhibition": 17},
      {"substance": "829970 (kT*kG*kG*dA*dA*dG*dG*dG*dA*dA*d[5mC]*d[5mC]*d[5mC]*k[5mC]*k[5mC]*kA; antisense) [compound 829970]", "% Inhibition": 0},
      {"substance": "829971 (kG*k[5mC]*k[5mC]*dA*d[5mC]*dA*d[5mC]*dA*d[5mC]*d[5mC]*dT*d[5mC]*dA*kA*k[5mC]*kG; antisense) [compound 829971]", "% Inhibition": 20},
      {"substance": "829972 (k[5mC]*kT*k[5mC]*dG*dG*d[5mC]*d[5mC]*dA*d[5mC]*dA*d[5mC]*dA*d[5mC]*k[5mC]*kT*k[5mC]; antisense) [compound 829972]", "% Inhibition": 22},
      {"substance": "829973 (kA*kA*kG*dA*dG*dG*d[5mC]*d[5mC]*dG*d[5mC]*d[5mC]*dT*dG*kG*k[5mC]*kG; antisense) [compound 829973]", "% Inhibition": 17},
      {"substance": "829974 (kA*kA*kA*dA*dG*dA*dG*dG*d[5mC]*d[5mC]*dG*d[5mC]*d[5mC]*kT*kG*kG; antisense) [compound 829974]", "% Inhibition": 27},
      {"substance": "829975 (k[5mC]*kA*kA*dA*dA*dG*dA*dG*dG*d[5mC]*d[5mC]*dG*d[5mC]*k[5mC]*kT*kG; antisense) [compound 829975]", "% Inhibition": 32}
    ]}
  ]
}
